Test results reported in patent US11352604B2, “Method of making cardiomyocytes from human pluripotent cells” (Wisconsin Alumni Research Foundation, priority 2016, dated 2022).

Legend:
Type in all cases: cell-based, human
hPSC-CMs = test: Cardiomyocyte yield from dissociated and replated progenitors; conditions: primed vs untreated
Experimental: For dissociation of day 5 cells (for destructive analyses or live cell replating experiments), progenitors were dissociated with Versene (Thermo Fisher Scientific) for 10 minutes at 37° C., pipetted up and down 40 times, and then neutralized 1:1 v/v versene solution with “K20” medium (DMEM/F12 with 1×NEAA, 1× Glutamine, 0.1 mM (3-mercaptoethanol, and 20% Knockout Serum Replacer by volume, all Thermo Fisher Scientific). For destructive analyses, pellets were made by centrifugation at 1.1×1000 g for 5 minutes, aspiration of medium supernatant, snap-freezing in liquid nitrogen, and kept at −80° C. for until pellet lysis for DNA, protein, or RNA isolation.
For replating of progenitors and microtissue formation, after neutralization and cell counting, 0.8 million day-5 progenitors per well were spun down at 100×g as above and resuspended and plated in 1 mL K20 with 10 μM Y-27632 ROCK-inhibitor (Tocris) into Synthemax® II-SC coated 12 well plates (Corning). Media was then changed daily in 2 mL of “K2” (same formulation as K20 above, but with just 2% Knockout Serum Replacer), and changed daily. Differentiating hPSC-CMs from replated progenitors in this protocol beat by day 8 to 12.

[1] = tested on: day 5 cardiac progenitors; test: RNA-seq differential gene expression, day 5 pI:C-primed vs untreated cardiac progenitors
Experimental: Day-5 cells from d3-5 untreated, TGFβ-treated, and pI:C-treated progenitors from the 19-9-11 iPS cell line were separately prepared as above for cell dissociation of progenitors from three different wells of each condition (for 9 total sequencing samples) and isolated as described above for RNA for RT-qPCR. rRNA-reduced Illumina TruSeq™ Stranded total RNA libraries were prepared and 1×100 bp single end sequencing was performed. To map and annotate RNA-seg data, STAR and HTSeq were used, respectively (Anders et al., 2015; Dobin and Gingeras, 2015). Annotated transcript counts were further processed with DeSEq2 for differential gene expression analysis (Love et al., 2014). Gene neighborhood analysis was performed with NEST (Jiang et al., 2015).

Jag1 = test: Flow cytometry of day 5 progenitors for Jag1 and Notch2
Source text: Flow cytometry for live cell surface antigens was done on dissociated cells of the 19-9-11 iPS cell line with Thy1 biotin (1:200 Biolegend, with Life Technologies streptavidin direct conjugate at 1:1000) and SIRPα (1:200, Biolegend) in K20 and then analyzed at the UWCCC Flow Cytometry Laboratory using a BD LSRII Fortessa flow cytometer. For progenitor flow experiments, cells were dissociated as above for progenitor dissociation, centrifuged at 200×g, subjected to FACS to concentrate cells, and resuspended in 100 μL, of K2 media+rockI/Jag1 PE, BD Biosciences (1:20); Notch2 APC R&D Biosystems (1:10) and analyzed on either a BD FACSariaII cell sorter or BD LSRII Fortessa flow cytometer.

[2] = day 5 progenitors, out of ~10,500 genes detected

With polyinosinic-polycytidylic acid [pI:C] the “increase in yield of cardiomyocytes” value (hPSC-CMs; replated at high reseeding density) was 4 fold, the “increase in yield of cardiomyocytes” value (hPSC-CMs; replated at lower density) was 6 fold and the “number of genes significantly downregulated” value [1, 2] was 912 genes. For the same substance, the “number of genes significantly upregulated” value [1, 2] was 514 genes, the log2FoldChange ([1]; gene ACTN3) was 0.6193 and the log2FoldChange ([1]; gene ADAMTS18) was −1.365. It also gave a log2FoldChange ([1]; gene ADCY5) of 0.9552, a log2FoldChange ([1]; gene ADCY8) of 0.6342 and a log2FoldChange ([1]; gene ALDH1A2) of 1.067. The log2FoldChange ([1]; gene ANKRD18A) was 1.148, the log2FoldChange ([1]; gene AQP3) was 0.8778 and the log2FoldChange ([1]; gene ARL15) was 0.6459. For the same substance, the log2FoldChange ([1]; gene ARSI) was 0.6043, the log2FoldChange ([1]; gene ATP8B4) was −1.545 and the log2FoldChange ([1]; gene BAI2) was 0.6046. For the same substance, the log2FoldChange ([1]; gene C20orf103) was 0.9674, the log2FoldChange ([1]; gene CD82) was 1.288 and the log2FoldChange ([1]; gene CDC25B) was 0.6173. The log2FoldChange ([1]; gene CHRNA3) was 0.6865, the log2FoldChange ([1]; gene CHRNB4) was 0.6085 and the log2FoldChange ([1]; gene CNTFR) was 0.8038. The log2FoldChange ([1]; gene COL2A1) was 0.9666, the log2FoldChange ([1]; gene COL19A1) was −0.827 and the log2FoldChange ([1]; gene CRNDE) was 0.7347. The log2FoldChange ([1]; gene CTNNA2) was 0.8199, the log2FoldChange ([1]; gene DKFZp686D0853) was 0.782 and the log2FoldChange ([1]; gene DKK1) was 0.8084. For the same substance, the log2FoldChange ([1]; gene DLL3) was 0.7285, the log2FoldChange ([1]; gene DPYSL5) was 0.6254 and the log2FoldChange ([1]; gene DUSP4) was −1.302. It also gave a log2FoldChange ([1]; gene EPHB3) of 0.6122, a log2FoldChange ([1]; gene ERBB4) of −0.836 and a log2FoldChange ([1]; gene EYA1) of 0.927. It also gave a log2FoldChange ([1]; gene FAM98B) of 1.008, a log2FoldChange ([1]; gene FHDC1) of 0.6831 and a log2FoldChange ([1]; gene FOXC1) of 0.9077. For the same substance, the log2FoldChange ([1]; gene FOXC2) was 0.8203, the log2FoldChange ([1]; gene FOXL1) was 1.223 and the log2FoldChange ([1]; gene GJA4) was −0.828. It also gave a log2FoldChange ([1]; gene GPC3) of 0.6647, a log2FoldChange ([1]; gene GPR55) of −1.691 and a log2FoldChange ([1]; gene HAND1) of −1.326. It also gave a log2FoldChange ([1]; gene HAPLN3) of 0.8468, a log2FoldChange ([1]; gene HEY1) of 0.6706 and a log2FoldChange ([1]; gene HLA-DQA2) of 0.881. The log2FoldChange ([1]; gene IFI16) was 1.021, the log2FoldChange ([1]; gene IP6K3) was 0.6953 and the log2FoldChange ([1]; gene IRX3) was 0.7452. The log2FoldChange ([1]; gene IRX5) was 0.9174, the log2FoldChange ([1]; gene JAG1) was 1.453 and the log2FoldChange ([1]; gene KCNH7) was 0.8627. For the same substance, the log2FoldChange ([1]; gene KCNJ16) was −1.26, the log2FoldChange ([1]; gene KIAA0319) was 0.6142 and the log2FoldChange ([1]; gene KIAA1324) was 0.914. The log2FoldChange ([1]; gene LIX1) was 0.6361, the log2FoldChange ([1]; gene MMP16) was 0.9772 and the log2FoldChange ([1]; gene MN1) was 0.8939. The log2FoldChange ([1]; gene MT1X) was 0.7867, the log2FoldChange ([1]; gene MXRA5) was −1.313 and the log2FoldChange ([1]; gene MYO7A) was 0.815. For the same substance, the log2FoldChange ([1]; gene NEFL) was 0.6647, the log2FoldChange ([1]; gene NELL2) was 0.6696 and the log2FoldChange ([1]; gene NETO1) was 0.918. For the same substance, the log2FoldChange ([1]; gene NFKBIZ) was 0.7246, the log2FoldChange ([1]; gene NKX3-1) was 0.9735 and the log2FoldChange ([1]; gene NPY) was 1.254. It also gave a log2FoldChange ([1]; gene NR2F1) of 0.7356, a log2FoldChange ([1]; gene NRCAM) of −1.533 and a log2FoldChange ([1]; gene NRXN1) of 0.724. The log2FoldChange ([1]; gene PANX2) was 1.107, the log2FoldChange ([1]; gene PAPPA) was 0.9808 and the log2FoldChange ([1]; gene PDE1B) was 0.9995. It also gave a log2FoldChange ([1]; gene PDGFD) of 0.6619, a log2FoldChange ([1]; gene PPFIA2) of 0.8189 and a log2FoldChange ([1]; gene PPFIBP2) of −0.835. For the same substance, the log2FoldChange ([1]; gene PPM1J) was 0.6364, the log2FoldChange ([1]; gene PPP1R1A) was 1.171 and the log2FoldChange ([1]; gene PRSS12) was 0.817. The log2FoldChange ([1]; gene PRSS23) was 0.9765, the log2FoldChange ([1]; gene PTN) was 0.7536 and the log2FoldChange ([1]; gene PTPN12) was 0.7631. The log2FoldChange ([1]; gene RARB) was 0.9291, the log2FoldChange ([1]; gene RASSF10) was −1.321 and the log2FoldChange ([1]; gene RERG) was 0.6913. It also gave a log2FoldChange ([1]; gene RHBDL3) of 0.7861, a log2FoldChange ([1]; gene RND3) of 0.6053 and a log2FoldChange ([1]; gene ROBO3) of 0.6174. For the same substance, the log2FoldChange ([1]; gene SCGB1A1) was 0.7028, the log2FoldChange ([1]; gene SIX1) was 1.397 and the log2FoldChange ([1]; gene SLC24A3) was 0.7397. The log2FoldChange ([1]; gene SLC28A2) was −1.472, the log2FoldChange ([1]; gene SPOCK3) was 0.6961 and the log2FoldChange ([1]; gene STAR) was 0.7806. The log2FoldChange ([1]; gene SYT4) was 0.9363, the log2FoldChange ([1]; gene SYT6) was 0.6752 and the log2FoldChange ([1]; gene TBX3) was −1.289. It also gave a log2FoldChange ([1]; gene TMEM132E) of 0.6361, a log2FoldChange ([1]; gene TMOD1) of −1.407 and a log2FoldChange ([1]; gene TMPRSS13) of 0.6086. The log2FoldChange ([1]; gene TOX) was 0.6437, the log2FoldChange ([1]; gene TRPA1) was −1.599 and the log2FoldChange ([1]; gene TXNIP) was 0.805. For the same substance, the log2FoldChange ([1]; gene USP27X) was 0.6946, the log2FoldChange ([1]; gene VEPH1) was −1.26 and the “number of Jag1 positive cells and median fluorescence signal-to-noise” value (Jag1) was “increased”.
